Patent publication US20070270393A1, “Methods and compositions for modulation of sleep cycle” (priority 2006, published 2007)
Where “and” joins values, the source holds several entries; their conditions need not be identical. Equal entries are not always repeated.

Columns and labels:
[1] = molecular target: T1, glucocorticoid (GR) receptors (Homo sapiens, UniProt P04150); conditions: literature; cited from earlier work
T1 sequence (P04150 1-777): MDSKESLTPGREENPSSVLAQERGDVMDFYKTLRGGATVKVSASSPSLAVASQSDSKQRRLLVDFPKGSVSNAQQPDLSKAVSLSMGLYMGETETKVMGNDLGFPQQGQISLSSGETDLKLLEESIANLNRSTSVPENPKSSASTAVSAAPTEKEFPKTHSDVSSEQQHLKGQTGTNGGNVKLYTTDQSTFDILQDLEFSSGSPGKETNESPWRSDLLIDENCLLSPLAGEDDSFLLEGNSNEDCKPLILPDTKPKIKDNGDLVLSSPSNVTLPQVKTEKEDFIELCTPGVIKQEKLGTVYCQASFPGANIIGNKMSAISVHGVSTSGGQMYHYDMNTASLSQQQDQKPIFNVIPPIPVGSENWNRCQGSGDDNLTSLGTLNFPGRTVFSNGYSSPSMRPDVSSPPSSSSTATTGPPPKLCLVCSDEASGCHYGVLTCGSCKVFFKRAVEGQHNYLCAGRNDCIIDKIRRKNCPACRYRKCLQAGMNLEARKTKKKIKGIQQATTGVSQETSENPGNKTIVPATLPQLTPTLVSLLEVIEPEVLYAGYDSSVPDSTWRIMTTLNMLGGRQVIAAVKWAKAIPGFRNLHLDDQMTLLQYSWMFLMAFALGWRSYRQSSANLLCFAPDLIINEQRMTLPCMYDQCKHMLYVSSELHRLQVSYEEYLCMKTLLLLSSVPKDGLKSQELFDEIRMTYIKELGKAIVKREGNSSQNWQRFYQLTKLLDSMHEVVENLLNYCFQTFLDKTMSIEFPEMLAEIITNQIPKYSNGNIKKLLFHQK

MR and GR = conditions: Reul and de Kloet 1985; cited from earlier work
[2] = tested on: nocturnal HPA axis activity in healthy controls; test: Two day repeated measures study of fludrocortisone's acute effects on nocturnal HPA axis activity; type: in vivo, human
Procedure: Nine healthy subjects were recruited from the community via flyers and internet postings. Subjects responding to ads were phone screened to determine if subjects met initial eligibility criteria. Those subjects meeting criteria underwent physical examination, screening labs (complete blood count, comprehensive metabolic panel, urine analysis, urine toxicology screen, TSH, FT4, serum pregnancy test) and EKG. A SCID was performed to rule out Axis I and Axis II DSM-TR pathology. At the time of this analysis and manuscript preparation, 9 subjects have been enrolled. Inclusion criteria were: (1) participants are age 18 to 85 years old with a HAM-D score less than or equal to 5. Exclusion criteria were: (1) personal history of Axis I or Axis II disorders; (2) active medical problems; (3) abuse of drugs or alcohol in the 6 months prior to study; (4) use of additional prescription medications, street drugs or alcohol during the week before the study; (5) currently pregnant or lactating.
This study is a two day repeated measures study of fludrocortisone's acute effects on nocturnal HPA axis activity in healthy controls. Blood samples were taken every 30 minutes, beginning at 1600 to 2400 on Days 1. At 1400 on Day 2, all subjects were given 0.5 mg of fludrocortisone. Blood was then resampled from 1600 to 2400 on Day 2 to assess nocturnal changes in HPA axis activity. Blood sampling was timed in the first half of the night to coincide with the time period of greatest activity of MR.
Group averages, standard deviation and effect sizes are reported. The primary end-points were chosen to be mean cortisol and ACTH from 1600 to 2400 when greatest mineralocorticoid receptor activity is expected. To determine the differential effects of fludrocortisone, data from all subjects are pooled and the average values from 1600 to 2400 are computed. Next, mean values across this time interval are computed before (Time 1) and after (Time 2) fludrocortisone and the effect size for the difference between pooled mean values is computed.

[3] = 0.5 mg fludrocortisone, treatment vs baseline

SMILES: CC#C[C@]1(O)CC[C@H]2[C@@H]3CCC4=CC(=O)CCC4=C3[C@@H](c3ccc(OCCN(C)C)cc3)C[C@@]21C [RU009, 11-beta-(4-dimethyl-aminoethoxyphenyl)-17-alpha-(propynyl-17beta-hydroxy-4,9-estradien-3-one)]
- antagonist of glucocorticoid (GR) receptors [1]: GR antagonist effects

SMILES: C[C@]12CCC(=O)C=C1CC[C@@H]1[C@@H]2[C@@H](O)C[C@@]2(C)[C@H]1CC[C@]2(O)C(=O)CO [cortisol]
- affinity for MR relative to GR (MR and GR): greater affinity for MR than GR

SMILES: C[C@]12CCC(=O)C=C1CC[C@H]1[C@@H]3CC[C@](O)(C(=O)CO)[C@@]3(C)C[C@H](O)[C@@]12F [fludrocortisone]
- Mean ACTH (1600 to 2400), Difference (Tx − Baseline) ([2]; 0.5 mg fludrocortisone at 1400 on Day 2): 5.76 pg/mL
- Mean Cortisol (1600 to 2400), Difference (Tx − Baseline) ([2]; 0.5 mg fludrocortisone at 1400 on Day 2, 9 healthy subjects): 2.19 µg/dL
- Mean Cortisol/ACTH (1600 to 2400), Difference (Tx − Baseline) ([2]; 0.5 mg fludrocortisone, post-hoc analysis): 0.0686 and 0.07
- Mean ACTH (1600 to 2400), Effect Size [2, 3]: 4.46
- Mean Cortisol (1600 to 2400), Effect Size [2, 3]: 1.65
- Mean Cortisol/ACTH (1600 to 2400), Effect Size [2, 3]: 0.92
- Mean ACTH (1600 to 2400), AUC Treatment ([2]; after 0.5 mg fludrocortisone): 13.2 pm/ml
- Mean Cortisol (1600 to 2400), AUC Treatment ([2]; after 0.5 mg fludrocortisone): 1.77 µg/dL
